Values after ≈ are worked out from the molar mass of the structure shown.
Legend:
phosphorylated RhoA = experiment: Immunofluorescence staining of phosphorylated RhoA in Swiss 3T3 cells; format: cell-based, mouse; details: 50 uM ZCL278, 10 uM NSC23766 or 1 unit/ml Cdc42 agonist
Protocol: (§1) Immunofluorescent staining: Swiss3T3 cells were grown on coverslips to 30% confluence. In serum-deprived culture, cells were treated with 10 uM NSC23766 or 50 uM ZCL278 for 1 hour followed by 1 unit/mL Cdc42 agonists (Cytoskeleton Products) treatment for 1 minute. Added agonist alone was used as a positive control while DMSO was used as a negative control. Cells on the coverslips were fixed in 4% paraformaldehyde for 15 minutes, and in 0.2% Triton X-100 for permeabilization for 15 minutes and then blocked in 10% BSA for 30 minutes.
(§2) Incubation with antibodies: anti-active Cdc42 (mouse antibody, Neweast Biosciences); phosphorylated RhoA antibody (rabbit antibody, Santa Cruz Biotechnology Company); GM130 antibody (mouse antibody, BD Biosciences Company). The next step was to apply corresponding secondary antibody. Rhodamine, Phalloidin was incubated for 1 hour at room temperature to observe filamentous actin under the Zeiss Axiovert fluorescent light microscopy of cells staining. Image processing software MetaMorph-5 was used to randomly select cells in randomly selected five-point pixels to obtain the average number of each group for pixel intensity values.
(§3) Determination of selective inhibition of Cdc42 activation by ZCL278 at the cellular level. […] FIG. 3C: Pixel intensity of phospho-RhoA in cells after treatments with Activator, ZCL278, or NSC23766 was quantified. […]

PC-3 cells [1] = experiment: Trypan blue dye exclusion cell viability in PC-3 cells; format: cell-based; details: 50 μM ZCL278 or 10 μM NSC23766, 24 hours, PC-3, trypan blue
Protocol: Examination of cell survival: PC3 cells were plated at 75000/ml for 48 hours, serum was removed and 50 uM ZCL278 or 10 uM NSC23766 was added, and then continue to culture for 24 hours before staining with trypan blue to determine cell survival rate.
In order to ensure that decreases in cellular migration seen with ZCL278 treatment was due to Cdc42 inhibition (or Rae inhibition when treated with NSC23766) rather than cell death, cell viability was tested using the trypan blue dye exclusion assay. PC-3 cells were arrested in G0, and then 50 μM ZCL278 or 10 μM NSC23766 was applied for 24 hours. […] Therefore, the differences seen in migratory ability is due to ZCL278-mediated Cdc42 inhibition or NSC23766-mediated Rac inhibition and not cell death.

GTP-bound (active) Cdc42 = biological target: T1, GTP-bound (active) Cdc42 (Mus musculus, UniProt P60766); experiment: G-LISA of GTP-bound (active) Cdc42 in Swiss 3T3 lysates; format: cell-based; details: then 1 unit/mL Cdc42 activator 2 minutes
T1 construct: endogenous in cells; host or cells: Swiss 3T3 fibroblasts (mouse)
Protocol: Serine 71 phosphorylation can occur on both Rac and Cdc42. To directly assess specific Cdc42 activation and inactivation, a G-LISA, an ELISA-based assay that allows a quantitative determination of the levels of GTP-bound (active) Cdc42 in cellular lysates was utilized. Serum-starved Swiss 3T3 fibroblasts were incubated for 1 hour with 50 μM ZCL278 or 10 μM NSC23766 (Rac inhibitor), followed by 2 minutes of stimulation with 1 unit/mL Cdc42 activator.
Finally, the ability of NSC23766 to cross-inhibit Cdc42 activation was analyzed. NSC23766 was developed in a similar manner as ZCL278; however, it is specific to Rac and should therefore act as an additional negative control in this assay.
G-LiSA kit: Swiss 3T3 cells were cultured to 40% of the growth density, then removed serum and cultured for 48 hours, treated with Cdc42 agonist for 1 minute, and treated with the 50 uM ZCL278 and 10 uM NSC23766. Cell lysis proteins were extracted according to kit instructions, and analysis of the quantification of total protein concentration to be 0.15 mg/ml. Untreated cells or cells treated with buffer were used as negative control while the agonist treated cells and active Cdc42 protein were used as a positive control. Enzyme linked immunosorbent assay measured the absorbance value of each sample 490 nm light wave.

GM130 = experiment: GM130-docked Golgi organization in Swiss 3T3 cells; format: cell-based, mouse; details: 50 uM ZCL278 or 10 uM NSC23766, Swiss 3T3
Protocol: as §1
as §2, with “values. […]” for “values.”

PC-3 cells [2] = experiment: Wound healing (migration) assay in PC-3 cells; format: cell-based, human; details: 24 hours; for wound closure: control 41%
Protocol: Filopodia are dynamic structures that aid cells in pathfinding and migration, and are largely controlled by Cdc42 activity. Using a metastatic line of human prostate cancer cells (PC-3), a wound healing assay was used in order to elucidate the effects of ZCL278 on cellular migration. 1 unit/ml Cdc42 activator; 50 uM or 5 uM of ZCL278; and 10 uM […] respectively, were used to treat cells for 24 hours, with Cdc42 activator as positive control, and no treatment as negative control. Cells were photographed at 0 and 24 hours following drug treatments and MetaMorph software was used to determine the distances cells had migrated. Black line indicates the boundary of wounded area. Each experiment was tested with p value (p<0.05).
The experiment was repeated three times and the means were obtained:**; p<0.01,*:p<0.05. Wound closure was less pronounced at 50 μM (8%) than 5 μM (30%) concentrations.

active Cdc42 = experiment: Immunofluorescence staining of active Cdc42 in Swiss 3T3 cells; format: cell-based, mouse; details: 50 uM ZCL278 or 10 uM NSC23766, Cdc42 agonist 1 unit/ml
Protocol: as §1, §2, §3

phospho-Rac/Cdc42 = experiment: Western blot of phospho-Rac/Cdc42 (Serine 71) in PC-3 cells; format: cell-based, human; details: 50 μM for 5, 10 and 15 minutes
Protocol: First, Cdc42 activation was investigated in human metastatic prostate cancer PC-3 cells that were treated with the Cdc42 activator or 50 μM ZCL278 for 5, 10, and 15 minutes. Serine 71 phosphorylation is known to negatively regulate Rac/Cdc42 activity, thus an increase: in phospho-Rac/Cdc42 expression is indicative of a decrease in active (GTP-bound) Rac/Cdc42.
(§4) The Western blot: PC3 cells cultured to approximately 70% of the density, then removed serum and cultured for 16 hours, with addition of drugs: 1 unit/mL Cdc42 agonist (cytoskeleton) 5 uM, 50 uM ZCL278 to treat cells for 5, 10, and 15 minutes respectively. Cell lysis buffer (Formulation: 50 mM Tris buffer solution pH 7.5, 10 mM magnesium chloride, 0.5 M sodium chloride, 1% Triton X-100 and protease inhibitors) cell lysis and centrifuged at 14000 rpm and 4° C. to obtain extracted protein samples. Western blot analysis was conducted using antibody: phosphorylated Rac1/Cdc42 (Milipore Company), phosphorylated WASP (Assay Biotech Company), all at 1:1000, and GAPDH antibody (Calbiochem Company) on PVDF membrane for chemiluminescence development.

Solubility determination = format: physicochemical
phospho-WASP = experiment: Western blot of phospho-WASP in PC-3 cells; format: cell-based, human; details: 50 μM, up to 15 minutes
Protocol: Wiskott-Aldrich syndrome Protein WASP) is a downstream effector of Cdc42 activation. Tyrosine phosphorylation WASP is linked to rapid Cdc42 degradation following its activation. […] Thus, ZCL278 inhibits Rac/Cdc42 phosphorylation in a time-dependent manner and maintains tyrosine phosphorylation of WASP.
as §4

[3] = system: growth cone filopodia of cortical neurons; experiment: Time-lapse video microscopy of growth cone dynamics in cortical neurons; format: cell-based, mouse; details: ZCL278 treatment, cortical neuron growth cone
Protocol: (§5) Time-lapsed video light microscopy was used to observe the effects of ZCL278 on neuronal growth cone dynamics, Hamamatsu Orca digital camera was used to record the cell images under 63× magnification for 10 minute. 300 ms exposure for imaging was used to minimize phototoxicity. The images were analyzed using MetaMorph software and statistical analysis was performed. At 5 days cultured in vitro, cortical neurons extended neurites with multiple branches (FIG. 6A, Control). 50 μM of ZCL278 was applied for 5 and 10 minutes, while DMSO-treated neurons were maintained as negative controls.
Cdc42 is also widely known to control filopodia and microspikes at the leading edge of migrating growth cones. […] Thus, these studies further support ZCL278 as an effective small-molecule inhibitor of Cdc42-mediated neuronal branching and growth cone motility.

Cdc42 [4] = biological target: T2, Cdc42 (Homo sapiens, UniProt P60953); experiment: Fluorescence titration of purified Cdc42 with ZCL278 (tryptophan fluorescence); format: binding; details: emission monitored at 350 nm
Protocol: The binding affinity of ZCL278 and Cdc42 was assessed by using two independent biophysical methods. First, fluorescence titration of purified Cdc42 ZCL278 was carded out by monitoring the change of fluorescence intensity of a tryptophan residue on CAc42 upon ZCL278 binding. As ZCL278 has a weak absorption peak at 310 nm, to avoid any experimental error that might result from potential fluorescence quenching by ZCL278, the fluorescence emission of Cdc42 was monitored at 350 nm, at which ZCL278 has a negligible absorption. […] These species in solution may have modifying effects on membrane transport and binding to Cdc42.

[5] = system: primary neonatal cortical neurons; experiment: Neuronal branching in primary neonatal cortical neurons; format: cell-based, mouse; details: 50 μM for 5 and 10 minutes, 5 days in vitro
Protocol: Primary neonatal day-one mouse brain was incubated with 0.25% trypsin HBSS for 15 minutes at 37° C., gently separated neurons were plated on poly-L-lysine coated coverslips, incubated with DMEM containing 10% bovine serum for 16 hours, then the media was changed to Neurobasal (Invitrogen). At 5 days in vitro, the cells were treated with either DMSO or 50 uM ZCL278 for 5 or 10 minutes, then fixed in 4% paraformaldehyde for 15 minutes. Fluorescein-phalloidin was applied to stain for F-actin structure and the neuronal morphology was observed under the Zeiss light microscope.
as §5

Cdc42 [6] = biological target: T2, Cdc42; experiment: Surface plasmon resonance, purified Cdc42 immobilized on CM5 chips; format: binding; details: SPR
[7] = system: Cdc42-mediated microspike/filopodia formation in Swiss 3T3 fibroblasts; experiment: Cdc42-mediated microspike/filopodia formation in serum-starved Swiss 3T3 fibroblasts; format: cell-based, mouse; details: 50 μM for 1 hour, then Cdc42 activator 2 minutes
Protocol: 30 selected ZCL compounds were assessed for their ability to inhibit Cdc42-mediated microspike/filopodia formation in serum-starved Swiss 3T3 fibroblasts. Actin-based microspikes/filopodia are characteristic of Cdc42 activity in cultured fibroblastic cells. […] When arrested fibroblasts were briefly stimulated with 1 unit/mL of a commercial Cdc42 activator, a dramatic increase in microspike number and decrease in stress fibers occurred (FIG. 2A, Activator). Compound ZCL278 was applied at 50 μM for 1 hour and then stimulated with the Cdc42 activator for 2 minute. The cell periphery of ZCL278-treated cells resembles control cells with few microspikes (FIG. 2A, ZCL278).

T2 sequence (P60953 whole entry, species assumed): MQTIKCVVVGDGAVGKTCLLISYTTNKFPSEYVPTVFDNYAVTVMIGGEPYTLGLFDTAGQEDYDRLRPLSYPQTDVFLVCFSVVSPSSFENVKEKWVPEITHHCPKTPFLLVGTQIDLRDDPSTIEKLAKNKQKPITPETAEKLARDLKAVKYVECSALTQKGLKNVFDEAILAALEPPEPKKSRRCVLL
T1 sequence (P60766 whole entry): as the sequence (P60953 whole entry, species assumed) above

Row | SMILES | pixel intensity of phospho-RhoA (phosphorylated RhoA) | cell viability versus non-treated cells (PC-3 cells [1]) | effect on GTP-Cdc42 content (GTP-bound (active) Cdc42; 10 μM NSC23766 1 hour) | GM130 immunoreactivity and distribution (GM130) | cellular migration (PC-3 cells [2]; 10 uM) | perinuclear distribution and immunoreactivity of active Cdc42 (active Cdc42) | Rac/Cdc42 phosphorylation (Serine 71) (phospho-Rac/Cdc42) | solubility (Solubility determination) [µM] | decrease in GTP-Cdc42 content compared with cells treated solely with the activator (GTP-bound (active) Cdc42; 50 μM ZCL278 1 hour) [%] | phospho-WASP expression (phospho-WASP) | time to retraction of filopodia [3] [min] | wound closure (PC-3 cells [2]; 5 μM) [%] | wound closure (PC-3 cells [2]; 50 μM) [%] | Kd (Cdc42 [4]) [µM] | neuronal branch number [5] | Kd (Cdc42 [6]) [µM] | inhibition of microspike formation [7]
1 | CCN(CC)CCCC(C)Nc1nc(C)cc(Nc2ccc3nc(C)cc(N)c3c2)n1 (stereo not drawn) [NSC23766, reference compound] | did not alter the phosphorylation RhoA | no difference in viability | does not reduce GTP-Cdc42 content | did not significantly after GM130 expression or distribution | significantly reduced | did not have similar effects |  |  |  |  |  |  |  |  |  |  | 
2 | Cc1cc(C)nc(NS(=O)(=O)c2ccc(NC(=S)NC(=O)COc3ccc(Br)cc3Cl)cc2)n1 [ZCL278, 4-(3-(2-(4-Bromo-2-chlorophenoxy)acetyl)thioureido)-N-(4,6-dimethylpyrimidin-2yl)benzenesulfonamide] | did not alter the phosphorylation RhoA | no difference in viability |  | clear reduction of GM130 immunoreactivity |  | obviously reduced this distribution | time-dependent increase | 181 (≈ 106 µg/mL) | ~80 | does not suppress phospho-WASP activity | ≤ 4 | 30 | 8 | 6.4 | significantly reduced | 11.4 | obvious inhibition of microspike formation

Source: patent publication US9725417B2, “Cdc42 inhibitor and uses thereof” (priority 2011, dated 2017)
